Data taken from US9624229B2, “Pyrimidine-2-amine compounds and their use as inhibitors of JAK kinases” (Rigel Pharmaceuticals, Inc., priority 2008, dated 2017).
Like-named read-outs stand apart in the source and are kept apart here.

Target: Ba/F3 V617F cells (Homo sapiens, UniProt O60674, V617F, cells depend on it)
Test: Proliferation assay (Cell Titer-Glo, 72 h) utilizing Ba/F3 V617F cells
Format: cell-based, mouse
Method in brief: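 Ba/F3 V617F cells in RPMI/10% FBS, 1×10^5 cells/mL, exposed in duplicate to 3-fold serial compound dilutions (top 5 mM DMSO stock, diluted 1:250, added as 2× solution in 5% FBS medium) for 72 h at 37 °C. Viability by Cell Titer-Glo luminescence; IC50 reported.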

[1] = Ba/F3 V617F cells, proliferation, level of activity to inhibit JAK2, read-out: IC50 (the source's name)
[2] = Ba/F3 V617F cells, proliferation, level of activity given as class symbol, read-out: IC50 (the source's name)

Sequence of Ba/F3 V617F cells (O60674 whole entry V617F): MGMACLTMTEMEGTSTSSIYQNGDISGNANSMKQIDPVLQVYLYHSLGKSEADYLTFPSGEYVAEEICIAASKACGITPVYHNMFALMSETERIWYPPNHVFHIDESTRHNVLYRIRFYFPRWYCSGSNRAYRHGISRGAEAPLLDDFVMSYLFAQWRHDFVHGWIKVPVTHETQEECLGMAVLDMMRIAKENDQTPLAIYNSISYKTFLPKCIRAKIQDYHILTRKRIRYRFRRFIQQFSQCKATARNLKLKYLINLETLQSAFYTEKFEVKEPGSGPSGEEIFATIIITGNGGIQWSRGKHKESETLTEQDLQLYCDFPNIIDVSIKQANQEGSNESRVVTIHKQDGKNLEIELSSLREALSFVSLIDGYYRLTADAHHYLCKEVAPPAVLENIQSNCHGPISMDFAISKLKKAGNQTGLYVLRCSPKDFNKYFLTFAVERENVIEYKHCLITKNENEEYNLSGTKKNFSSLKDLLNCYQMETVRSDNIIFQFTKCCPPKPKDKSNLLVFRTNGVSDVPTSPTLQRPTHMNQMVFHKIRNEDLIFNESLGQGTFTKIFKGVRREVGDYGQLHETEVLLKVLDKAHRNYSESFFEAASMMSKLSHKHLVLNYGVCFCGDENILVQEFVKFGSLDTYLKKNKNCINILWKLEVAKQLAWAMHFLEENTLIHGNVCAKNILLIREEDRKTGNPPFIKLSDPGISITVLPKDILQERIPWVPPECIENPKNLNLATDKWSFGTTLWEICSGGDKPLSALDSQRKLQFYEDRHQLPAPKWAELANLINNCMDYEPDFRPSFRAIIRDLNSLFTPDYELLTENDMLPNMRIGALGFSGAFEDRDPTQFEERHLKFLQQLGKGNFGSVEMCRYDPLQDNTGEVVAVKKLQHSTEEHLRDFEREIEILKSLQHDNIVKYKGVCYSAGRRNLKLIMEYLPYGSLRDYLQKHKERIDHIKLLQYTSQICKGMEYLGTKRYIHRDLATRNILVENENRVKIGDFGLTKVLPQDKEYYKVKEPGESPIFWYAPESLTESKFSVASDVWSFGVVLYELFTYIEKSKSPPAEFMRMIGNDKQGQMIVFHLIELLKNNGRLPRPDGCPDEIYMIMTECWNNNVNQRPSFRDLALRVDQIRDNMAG

| Compound | GI50 [1] [µM] | GI50 [2] [µM] | also measured |
| --- | --- | --- | --- |
| Cc1cnc(Nc2ccc(N3C[C@@H]4C[C@H]3CN4C)c(F)c2)nc1-c1ccc(N(C)C)nc1 [compound 6, 4-(6-(N,N-dimethylamino)pyridin-3-yl)-5-methyl-N-(3-fluoro-4-((1S,4S)-5-methyl-2,5-diazabicyclo[2.2.1]heptan-2-yl)phenyl)pyrimidin-2-amine] | < 1 |  |  |
| CN1C[C@@H]2C[C@H]1CN2c1ccc(Nc2nccc(-c3cnc(N4CCOCC4)nc3)n2)cc1F [compound 43, 4-(2-(morpholin-4-yl)pyrimidin-5-yl)-N-(3-fluoro-4-((1S,4S)-5-methyl-2,5-diazabicyclo[2.2.1]heptan-2-yl)phenyl)pyrimidin-2-amine] | < 1 |  |  |
| Cc1cc(Nc2nccc(-c3ccc(NC(=O)NC4CC4)cc3)n2)cnc1N1C[C@@H]2C[C@H]1CN2C [compound 140, 4-(4-(3-cyclopropylureido)phenyl)-N-(5-methyl-6-((1S,4S)-5-methyl-2,5-diazabicyclo[2.2.1]heptan-2-yl)pyridin-3-yl)pyrimidin-2-amine] |  |  | GI50 (inhibition of JAK2 activity, proliferation of Ba/F3 V617F cells, read-out: IC50 (the source's name)): 1 to 10 µM |
| CN1C[C@@H]2C[C@H]1CN2c1ccc(Nc2nccc(-c3ccc(NS(C)(=O)=O)nc3)n2)cc1F [compound 153, 4-(6-(methylsulfonylamino)pyridin-3-yl)-N-(3-fluoro-4-((1S,4S)-5-methyl-2,5-diazabicyclo[2.2.1]heptan-2-yl)phenyl)pyrimidin-2-amine] | 1 to 10 |  |  |
| Cc1cnc(Nc2ccc(N3C[C@@H]4C[C@H]3CN4C)c(F)c2)nc1-c1ccc(N2CCOCC2)nc1 [compound 68, 5-methyl-4-(6-(morpholin-4-yl)pyridin-3-yl)-N-(3-fluoro-4-((1S,4S)-5-methyl-2,5-diazabicyclo[2.2.1]heptan-2-yl)phenyl)pyrimidin-2-amine] | < 1 |  |  |
| CCN1C[C@@H]2C[C@H]1CN2c1ccc(Nc2nccc(-c3ccc(N(C)C)nc3)n2)cc1C [compound 24, 4-(6-(dimethylamino)pyridin-3-yl)-N-(3-methyl-4-((1S,4S)-5-ethyl-2,5-diazabicyclo[2.2.1]heptan-2-yl)phenyl)pyrimidin-2-amine] | < 1 |  |  |
| N#Cc1cc(Nc2nccc(-c3ccc(N4CCOCC4)nc3)n2)ccc1N1C[C@@H]2C[C@H]1CN2C1CCCC1 [compound 119, 4-(6-(morpholin-4-yl)pyridin-3-yl)-N-(3-cyano-4-((1S,4S)-5-cyclopentyl-2,5-diazabicyclo[2.2.1]heptan-2-yl)phenyl)pyrimidin-2-amine] | < 1 |  |  |
| Cc1cc(Nc2nccc(-c3ccc(NCCNS(=O)(=O)C4CC4)nc3)n2)ccc1N1C[C@@H]2C[C@H]1CN2C [compound 99, 4-(6-((2-(cyclopropylsulfonyl)aminoethyl)-amino)pyridin-3-yl)-N-(3-methyl-4-((1S,4S)-5-methyl-2,5-diazabicyclo[2.2.1]heptan-2-yl)phenyl)pyrimidin-2-amine] | 1 to 10 |  |  |
| Cc1cc(Nc2nccc(-c3cnc4c(c3)OC(C)(C)C(=O)N4)n2)ccc1N1C[C@H]2C[C@@H]1CN2C [compound 71, 4-(2,2-dimethyl-3-oxo-3,4-dihydro-2H-pyrido[3,2-b][1,4]oxazin-7-yl)-N-(3-methyl-4-((1R,4R)-5-methyl-2,5-diazabicyclo[2.2.1]heptan-2-yl)phenyl)pyrimidin-2-amine] | < 1 |  |  |
| Cc1cc(Nc2nccc(-c3cnc4c(c3)OCCN4C)n2)ccc1N1C[C@@H]2C[C@H]1CN2C [compound 8, 4-(4-methyl-3,4-dihydro-2H-pyrido[3,2-b][1,4]oxazin-7-yl)-N-(3-methyl-4-((1S,4S)-5-methyl-2,5-diazabicyclo[2.2.1]heptan-2-yl)phenyl)pyrimidin-2-amine] | < 1 |  |  |
| Cc1cc(Nc2nccc(-c3ccc(C#N)nc3)n2)ccc1N1C[C@@H]2C[C@H]1CN2C [compound 111, 4-(6-cyanopyridin-3-yl)-N-(3-methyl-4-((1S,4S)-5-methyl-2,5-diazabicyclo[2.2.1]heptan-2-yl)phenyl)pyrimidin-2-amine] | 1 to 10 |  |  |
| Cc1cc(Nc2ncc(C)c(-c3ccc(N4CCOCC4)nc3)n2)ccc1N1C[C@@H]2C[C@H]1CN2C [compound 67, 5-methyl-4-(6-(morpholin-4-yl)pyridin-3-yl)-N-(3-methyl-4-((1S,4S)-5-methyl-2,5-diazabicyclo[2.2.1]heptan-2-yl)phenyl)pyrimidin-2-amine] | < 1 |  |  |
| CC(=O)Nc1ccc(-c2ccnc(Nc3ccc(N4C[C@@H]5C[C@H]4CO5)c(C)c3)n2)cn1 [compound 147, 4-(6-(acetamido)pyridin-3-yl)-N-(3-methyl-4-((1S,4S)-5-oxa-2-azabicyclo[2.2.1]heptan-2-yl)phenyl)pyrimidin-2-amine] | < 1 |  |  |
| CN1C[C@@H]2C[C@H]1CN2c1ccc(Nc2nccc(-c3cnc4c(c3)OC(C)(C)C(=O)N4)n2)cc1F [compound 19, 4-(2,2-dimethyl-3-oxo-3,4-dihydro-2H-pyrido[3,2-b][1,4]oxazin-7-yl)-N-(3-fluoro-4-((1S,4S)-5-methyl-2,5-diazabicyclo[2.2.1]heptan-2-yl)phenyl)pyrimidin-2-amine] | < 1 |  |  |

More lines, main results first:

| GI50 [1] [µM] | GI50 [2] [µM] | Compound | also measured |
| --- | --- | --- | --- |
|  | < 1 | Cc1cc(Nc2nccc(-c3ccc(N4CCOCC4)nc3)n2)ccc1N1C[C@@H]2C[C@H]1CO2 [compound 194, 4-(6-(morpholin-4-yl)pyridin-3-yl)-N-(3-methyl-4-((1S,4S)-5-oxa-2-azabicyclo[2.2.1]heptan-2-yl)phenyl)pyrimidin-2-amine] |  |
| < 1 |  | CC1(C)Oc2cc(-c3ccnc(Nc4ccc(N5C[C@@H]6C[C@H]5CN6)c(C(F)(F)F)c4)n3)cnc2NC1=O [compound 172, 4-(2,2-dimethyl-3-oxo-3,4-dihydro-2H-pyrido[3,2-b][1,4]oxazin-7-yl)-N-(3-trifluoromethyl-4-((1S,4S)-2,5-diazabicyclo[2.2.1]heptan-2-yl)phenyl)pyrimidin-2-amine] |  |
|  | < 1 | Cc1cc(Nc2nccc(-c3ccc(N4C[C@@H](C)O[C@@H](C)C4)nc3)n2)ccc1N1CC2(C)CN(C)CC(C)(C1)C2 [compound 212, 4-(6-((2S,6R)-2,6-dimethylmorpholin-4-yl)pyridin-3-yl)-N-(3-methyl-4-(1,5,7-trimethyl-3,7-diazabicyclo[3.3.1]nonan-3-yl)phenyl)pyrimidin-2-amine] |  |
| 1 to 10 |  | CCOc1ccc(-c2ccnc(Nc3ccc(N4C[C@@H]5C[C@H]4CN5C)c(F)c3)n2)cn1 [compound 174, 4-(6-ethoxypyridin-3-yl)-N-(3-fluoro-4-((1S,4S)-5-methyl-2,5-diazabicyclo[2.2.1]heptan-2-yl)phenyl)pyrimidin-2-amine] |  |
|  | < 1 | Cc1cc(Nc2nccc(-c3ccc4c(ccn4-c4ccncc4)c3)n2)ccc1N1C[C@@H]2C[C@H]1CN2CC(C)C [compound 235, 4-(1-(pyridin-4-yl)-1H-indol-5-yl)-N-(3-methyl-4-((1S,4S)-5-isobutyl-2,5-diazabicyclo[2.2.1]heptan-2-yl)phenyl)pyrimidin-2-amine] |  |
|  | 1 to 10 | CS(=O)(=O)N1C[C@@H]2C[C@H]1CN2c1ccc(Nc2nccc(-c3ccc(OC4CCOCC4)nc3)n2)cc1Cl [compound 258, 4-(6-(tetrahydropyran-4-yloxy)pyridin-3-yl)-N-(3-chloro-4-((1S,4S)-5-(methylsulfonyl)-2,5-diazabicyclo[2.2.1]heptan-2-yl)phenyl)pyrimidin-2-amine] |  |
| < 1 |  | CCN(CC)c1nc(-c2ccnc(Nc3ccc(N4C[C@@H]5C[C@H]4CN5C)c(F)c3)n2)cs1 [compound 164, 4-(2-(diethylamino)thiazol-4-yl)-N-(3-fluoro-4-((1S,4S)-5-methyl-2,5-diazabicyclo[2.2.1]heptan-2-yl)phenyl)pyrimidin-2-amine] |  |
|  | < 1 | CCN1C[C@@H]2C[C@H]1CN2c1ccc(Nc2nccc(-c3ccc4c(ccn4-c4ccncc4)c3)n2)cc1C [compound 234, 4-(1-(pyridin-4-yl)-1H-indol-5-yl)-N-(3-methyl-4-((1S,4S)-5-ethyl-2,5-diazabicyclo[2.2.1]heptan-2-yl)phenyl)pyrimidin-2-amine] |  |
| < 1 |  | CN1CCOc2cc(-c3ccnc(Nc4ccc(N5C[C@@H]6C[C@H]5CN6C)cc4)n3)cnc21 [compound 185, 4-(4-methyl-3,4-dihydro-2H-pyrido[3,2-b][1,4]oxazin-7-yl)-N-(4-((1S,4S)-5-methyl-2,5-diazabicyclo[2.2.1]heptan-2-yl)phenyl)pyrimidin-2-amine] |  |
|  | < 1 | Cc1cc(Nc2nccc(-c3ccc(OC4CCOCC4)nc3)n2)ccc1N1C[C@@H]2C[C@H]1CN2C1CCCC1 [compound 262, 4-(6-(tetrahydropyran-4-yloxy)pyridin-3-yl)-N-(3-methyl-4-((1S,4S)-5-cyclopentyl-2,5-diazabicyclo[2.2.1]heptan-2-yl)phenyl)pyrimidin-2-amine] |  |
|  | < 1 | Cc1cc(Nc2nccc(-c3ccc(OC4CCOCC4)nc3)n2)ccc1N1C[C@@H]2C[C@H]1CN2C [compound 261, 4-(6-(tetrahydropyran-4-yloxy)pyridin-3-yl)-N-(3-methyl-4-((1S,4S)-5-methyl-2,5-diazabicyclo[2.2.1]heptan-2-yl)phenyl)pyrimidin-2-amine] |  |
|  | < 1 | Cc1cc(Nc2nccc(-c3ccc(N4CCCCC4)nc3)n2)ccc1N1C[C@@H]2C[C@H]1CN2C [compound 190, 4-(6-(piperidin-1-yl)pyridin-3-yl)-N-(3-methyl-4-((1S,4S)-5-methyl-2,5-diazabicyclo[2.2.1]heptan-2-yl)phenyl)pyrimidin-2-amine] |  |
|  | < 1 | Cc1cc(Nc2nccc(-c3cnc4c(c3)CN3CCCC3C(=O)N4)n2)ccc1N1C[C@@H]2C[C@H]1CN2C (stereo partly drawn) [compound 270, 4-(7,8,9,9a-tetrahydro-5H-pyrido[2,3-e]pyrrolo[1,2-a][1,4]diazepin-10(11H)-on-3-yl)-N-(3-methyl-4-((1S,4S)-5-methyl-2,5-diazabicyclo[2.2.1]heptan-2-yl)phenyl)pyrimidin-2-amine] |  |
